Reference: ChEMBL document CHEMBL2021921 (Bioorg Med Chem Lett, 2012)
One block for each molecule: values may come before it. The source made the active and inactive calls. No cut-off for these calls is given here. Where a SMILES comes first, the peptide text is derived from it. [ ]: non-standard residue; d: D form. The star is where a group is joined. Adenosine(5'-uronoyl) = Nc1ncnc2c1ncn2[C@@H]1O[C@H](C(=O)*)[C@@H](O)[C@H]1O; X1 = Nc1nccc(-c2ccc(C(=O)*)s2)n1; Ahx = NCCCCCC(=O)O

What was measured:
[1] = Displacement of fluorescent-ARC-583 from recombinant bovine PKAc by fluorescence anisotropy assay; set-up: species or system Bos taurus
[2] = biological target: T1, Rho-associated protein kinase 2 (Homo sapiens, UniProt O75116); assay: Displacement of fluorescent-ARC-1042 from His6-tagged recombinant human ROCK2 by fluorescence anisotropy assay
Target sequence in this assay (O75116 whole entry): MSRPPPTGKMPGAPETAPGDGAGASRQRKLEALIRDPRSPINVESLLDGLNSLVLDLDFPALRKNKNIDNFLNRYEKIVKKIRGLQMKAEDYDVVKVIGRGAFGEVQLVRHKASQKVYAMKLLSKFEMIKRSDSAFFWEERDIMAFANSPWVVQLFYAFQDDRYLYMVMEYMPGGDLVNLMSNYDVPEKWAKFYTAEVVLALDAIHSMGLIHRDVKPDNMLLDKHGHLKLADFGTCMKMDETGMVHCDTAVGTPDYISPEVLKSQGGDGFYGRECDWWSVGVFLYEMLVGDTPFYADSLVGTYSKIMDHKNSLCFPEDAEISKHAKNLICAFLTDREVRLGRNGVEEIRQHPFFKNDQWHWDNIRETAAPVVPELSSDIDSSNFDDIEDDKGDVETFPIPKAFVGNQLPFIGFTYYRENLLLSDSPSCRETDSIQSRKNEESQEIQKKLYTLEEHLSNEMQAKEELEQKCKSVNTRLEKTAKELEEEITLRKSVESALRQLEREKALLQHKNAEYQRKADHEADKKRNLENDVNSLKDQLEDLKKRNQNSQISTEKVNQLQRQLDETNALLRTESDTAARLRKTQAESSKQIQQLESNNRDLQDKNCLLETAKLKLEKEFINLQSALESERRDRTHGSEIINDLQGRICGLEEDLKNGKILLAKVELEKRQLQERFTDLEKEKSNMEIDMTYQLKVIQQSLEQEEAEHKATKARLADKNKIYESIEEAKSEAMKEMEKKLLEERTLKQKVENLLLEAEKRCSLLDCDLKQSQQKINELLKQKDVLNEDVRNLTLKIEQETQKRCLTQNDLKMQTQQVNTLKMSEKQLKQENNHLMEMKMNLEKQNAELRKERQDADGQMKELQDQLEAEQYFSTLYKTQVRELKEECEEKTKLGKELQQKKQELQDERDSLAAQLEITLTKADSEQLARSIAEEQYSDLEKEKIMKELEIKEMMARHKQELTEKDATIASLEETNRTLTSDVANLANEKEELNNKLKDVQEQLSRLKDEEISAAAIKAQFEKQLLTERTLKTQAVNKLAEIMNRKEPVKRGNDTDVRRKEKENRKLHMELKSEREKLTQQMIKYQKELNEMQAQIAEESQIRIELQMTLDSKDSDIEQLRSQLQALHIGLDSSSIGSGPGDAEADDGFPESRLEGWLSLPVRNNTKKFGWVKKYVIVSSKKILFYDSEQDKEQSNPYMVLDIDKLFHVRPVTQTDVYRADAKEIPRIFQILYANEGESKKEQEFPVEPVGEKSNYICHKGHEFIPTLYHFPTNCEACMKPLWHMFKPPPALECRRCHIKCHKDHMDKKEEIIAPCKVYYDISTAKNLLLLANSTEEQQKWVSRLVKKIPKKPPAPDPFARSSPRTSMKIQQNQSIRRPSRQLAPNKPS

Bos taurus = species on record: Bos taurus; assay: Displacement of fluorescent-ARC-1063 from recombinant bovine PKAc by fluorescence anisotropy assay
[3] = biological target: T1, Rho-associated protein kinase 2; assay: Displacement of fluorescent-ARC-1063 from His6-tagged recombinant human ROCK2 by fluorescence anisotropy assay
Target sequence in this assay (O75116 whole entry, looked up): as the sequence (O75116 whole entry) above

[4] = Displacement of fluorescent-ARC-1063 from recombinant bovine PKAc by luminescence intensity assay; set-up: species or system Bos taurus
[5] = biological target: T1, Rho-associated protein kinase 2; assay: Displacement of fluorescent-ARC-1063 from His6-tagged recombinant human ROCK2 by luminescence intensity assay
Target sequence in this assay (O75116 whole entry): as above

[6] = Selectivity ratio of Kd for His6-tagged recombinant human ROCK2 to Kd for recombinant bovine PKAc
[7] = Binding affinity to PKG
[8] = Binding affinity to PKAc
[9] = biological target: Ribosomal protein S6 kinase alpha-5 (Homo sapiens, UniProt O75582); assay: Displacement of fluorescent-ARC-583/ARC-1042/ARC-1059 from His6-tagged recombinant human MSK1 by fluorescence anisotropy assay
[10] = biological target: Ribosomal protein S6 kinase beta-1 (Homo sapiens, UniProt P23443); assay: Displacement of fluorescent-ARC-583/ARC-1042/ARC-1059 from His6-tagged recombinant human p70S6K by fluorescence anisotropy assay
[11] = biological target: T2, cGMP-dependent protein kinase 1 (Homo sapiens, UniProt Q13976); assay: Displacement of fluorescent-ARC-583/ARC-1042/ARC-1059 from His6-tagged recombinant human PKG1alpha by fluorescence anisotropy assay
T2 sequence (Q13976 whole entry): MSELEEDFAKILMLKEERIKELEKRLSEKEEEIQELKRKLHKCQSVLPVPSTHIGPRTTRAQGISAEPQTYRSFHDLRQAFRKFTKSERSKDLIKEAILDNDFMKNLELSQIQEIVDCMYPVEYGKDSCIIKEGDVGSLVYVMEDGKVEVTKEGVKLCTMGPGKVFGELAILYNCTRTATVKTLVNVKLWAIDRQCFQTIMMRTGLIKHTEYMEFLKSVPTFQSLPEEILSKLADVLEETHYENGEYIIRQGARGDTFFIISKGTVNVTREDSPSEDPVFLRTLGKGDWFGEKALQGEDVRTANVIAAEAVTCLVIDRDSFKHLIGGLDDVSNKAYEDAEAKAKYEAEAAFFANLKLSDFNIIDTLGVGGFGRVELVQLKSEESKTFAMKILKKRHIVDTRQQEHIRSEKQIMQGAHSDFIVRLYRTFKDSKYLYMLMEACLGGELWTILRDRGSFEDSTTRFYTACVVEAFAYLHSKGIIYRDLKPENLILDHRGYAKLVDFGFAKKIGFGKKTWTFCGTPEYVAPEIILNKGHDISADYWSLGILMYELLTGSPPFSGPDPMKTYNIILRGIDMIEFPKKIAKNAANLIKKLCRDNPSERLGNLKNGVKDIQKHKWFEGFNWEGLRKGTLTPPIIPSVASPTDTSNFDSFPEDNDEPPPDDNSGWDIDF

[12] = biological target: RAC-gamma serine/threonine-protein kinase (Homo sapiens, UniProt Q9Y243, S472D); assay: Displacement of fluorescent-ARC-583/ARC-1042/ARC-1059 from His6-tagged recombinant human AKT3 S472D mutant by fluorescence anisotropy assay
[13] = biological target: T1, Rho-associated protein kinase 2; assay: Displacement of fluorescent-ARC-583/ARC-1042/ARC-1059 from His6-tagged recombinant human ROCK2 by fluorescence anisotropy assay
Target sequence in this assay (O75116 whole entry): as the sequence (O75116 whole entry) above

[14] = Displacement of fluorescent-ARC-583/ARC-1042/ARC-1059 from His6-tagged recombinant human PKCeta S472D mutant by fluorescence anisotropy assay
[15] = Displacement of fluorescent-ARC-583/ARC-1042/ARC-1059 from recombinant bovine PKAc by fluorescence anisotropy assay; set-up: species or system Bos taurus
[16] = Inhibition of PKC
[17] = Inhibition of catalytic subunit of PKA

Chain of RAC-gamma serine/threonine-protein kinase (Q9Y243 2-479 S472D limits assumed): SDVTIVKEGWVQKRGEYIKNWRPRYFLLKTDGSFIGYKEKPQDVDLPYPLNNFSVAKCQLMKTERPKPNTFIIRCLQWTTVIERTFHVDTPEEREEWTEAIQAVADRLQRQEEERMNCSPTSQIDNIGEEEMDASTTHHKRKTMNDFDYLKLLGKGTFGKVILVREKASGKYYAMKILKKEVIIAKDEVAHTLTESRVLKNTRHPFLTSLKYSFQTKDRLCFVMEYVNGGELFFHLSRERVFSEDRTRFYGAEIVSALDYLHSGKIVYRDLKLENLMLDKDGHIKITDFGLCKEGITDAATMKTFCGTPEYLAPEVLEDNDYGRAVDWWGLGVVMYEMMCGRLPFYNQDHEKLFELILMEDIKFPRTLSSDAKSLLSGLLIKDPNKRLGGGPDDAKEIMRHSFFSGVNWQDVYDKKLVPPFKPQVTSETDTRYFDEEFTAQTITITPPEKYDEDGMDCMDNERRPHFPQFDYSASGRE
Chain of Ribosomal protein S6 kinase beta-1 (P23443 whole entry): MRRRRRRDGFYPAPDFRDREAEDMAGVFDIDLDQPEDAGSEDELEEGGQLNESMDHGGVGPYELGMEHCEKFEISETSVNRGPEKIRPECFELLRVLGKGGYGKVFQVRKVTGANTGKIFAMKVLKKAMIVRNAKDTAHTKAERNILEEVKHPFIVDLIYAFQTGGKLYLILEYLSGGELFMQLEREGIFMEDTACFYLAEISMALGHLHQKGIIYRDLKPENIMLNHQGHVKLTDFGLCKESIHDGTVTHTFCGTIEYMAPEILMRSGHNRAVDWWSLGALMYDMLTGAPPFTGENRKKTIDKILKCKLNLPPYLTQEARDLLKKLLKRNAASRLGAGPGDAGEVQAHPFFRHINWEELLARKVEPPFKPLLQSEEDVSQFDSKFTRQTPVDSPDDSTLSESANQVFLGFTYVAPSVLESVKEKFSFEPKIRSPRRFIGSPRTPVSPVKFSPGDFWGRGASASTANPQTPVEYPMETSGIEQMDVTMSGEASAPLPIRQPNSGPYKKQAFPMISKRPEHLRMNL
Chain of Ribosomal protein S6 kinase alpha-5 (O75582 whole entry): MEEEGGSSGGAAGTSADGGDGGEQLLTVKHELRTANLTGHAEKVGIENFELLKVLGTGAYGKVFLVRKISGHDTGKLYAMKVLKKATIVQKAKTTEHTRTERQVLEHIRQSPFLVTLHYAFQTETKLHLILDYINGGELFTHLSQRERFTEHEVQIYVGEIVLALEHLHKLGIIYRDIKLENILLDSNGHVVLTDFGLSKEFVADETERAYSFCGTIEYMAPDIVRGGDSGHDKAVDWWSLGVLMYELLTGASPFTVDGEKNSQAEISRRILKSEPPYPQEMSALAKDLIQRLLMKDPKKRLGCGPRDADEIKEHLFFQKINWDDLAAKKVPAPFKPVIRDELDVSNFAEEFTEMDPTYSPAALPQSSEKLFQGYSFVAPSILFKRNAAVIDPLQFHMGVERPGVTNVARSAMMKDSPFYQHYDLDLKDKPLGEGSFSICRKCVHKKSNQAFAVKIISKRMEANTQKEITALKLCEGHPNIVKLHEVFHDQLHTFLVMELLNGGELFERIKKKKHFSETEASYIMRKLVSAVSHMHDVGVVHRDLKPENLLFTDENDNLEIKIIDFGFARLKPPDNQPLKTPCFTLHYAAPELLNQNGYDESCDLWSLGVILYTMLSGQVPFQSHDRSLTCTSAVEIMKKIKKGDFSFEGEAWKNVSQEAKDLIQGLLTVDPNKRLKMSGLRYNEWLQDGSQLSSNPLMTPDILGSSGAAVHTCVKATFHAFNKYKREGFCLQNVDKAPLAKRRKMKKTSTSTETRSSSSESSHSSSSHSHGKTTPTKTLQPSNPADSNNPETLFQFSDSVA

Kd [1]: 2500 nM | pIC50 [1]: 4.78 | pIC50 [2]: > 4.5
Compound: N=C(N)NCCC[C@@H](NC(=O)[C@@H](CCCNC(=N)N)NC(=O)CCCCCNC(=O)[C@@H](CCCCN)NC(=O)CNCC(=O)NCCNS(=O)(=O)c1cccc2cnccc12)C(N)=O

pIC50 [1]: > 4.5 | IC50 [2]: 16200 nM | Kd [2]: 690 nM
Compound: N=C(N)NCCC[C@@H](NC(=O)[C@@H](CCCNC(=N)N)NC(=O)CCCCCNC(=O)[C@H](CCCCN)NC(=O)CNCC(=O)NCCNS(=O)(=O)c1cccc2cnccc12)C(N)=O

pIC50 [2]: > 4.5
Compound: N=C(N)NCCC[C@@H](NC(=O)[C@@H](CCCNC(=N)N)NC(=O)CNCC(=O)NCCNS(=O)(=O)c1cccc2cnccc12)C(N)=O

Kd [1]: 130 nM | pIC50 [1]: 6.07 | IC50 [2]: 34.7 nM | Kd [2]: 1.5 nM
Compound: N=C(N)NCCC[C@@H](NC(=O)[C@@H](CCCNC(=N)N)NC(=O)[C@@H](CCCNC(=N)N)NC(=O)[C@@H](CCCNC(=N)N)NC(=O)[C@@H](CCCNC(=N)N)NC(=O)[C@@H](CCCNC(=N)N)NC(=O)CCCCCNC(=O)[C@@H](CCCCN)NC(=O)CNCC(=O)NCCNS(=O)(=O)c1cccc2cnccc12)C(N)=O

Kd [4]: 25 nM | pIC50 [4]: 4.12 | pIC50 [14]: > 5 | Selectivity Index [6]: 0.56 | Kd [15]: 83 nM | pIC50 [15]: 6.16
Compound: N=C(N)NCCC[C@@H](NC(=O)[C@@H](CCCNC(=N)N)NC(=O)CCCCCNC(=O)[C@@H](CCCCN)NC(=O)CCCCCCCN1CCCN(S(=O)(=O)c2cccc3cnccc23)CC1)C(N)=O

IC50 [16]: 300 nM | IC50 [17]: 3 nM
Compound: N=C(N)NCCC[C@H](NC(=O)[C@H](CCCNC(=N)N)NC(=O)[C@H](CCCNC(=N)N)NC(=O)[C@H](CCCNC(=N)N)NC(=O)[C@H](CCCNC(=N)N)NC(=O)[C@H](CCCNC(=N)N)NC(=O)[C@H](CO)NC(=O)CCNCCNS(=O)(=O)c1cccc2cnccc12)C(N)=O

IC50 [9]: 81.3 nM | Kd [9]: 26 nM | Kd [1]: 0.53 nM | pIC50 [1]: 8.26 | IC50 [10]: 6.46 nM | Kd [10]: < 1 nM | IC50 [11]: 41.7 nM | Kd [11]: 13 nM | IC50 [12]: 72.4 nM | Kd [12]: 55 nM | Kd [14]: 980 nM | pIC50 [14]: 5.76 | IC50 [13]: 2.45 nM | Kd [13]: < 0.5 nM | Kd [15]: < 1 nM | pIC50 [15]: 8.26 | IC50 [2]: 2.45 nM | Kd [2]: < 0.5 nM
Compound: N=C(N)NCCC[C@@H](NC(=O)[C@@H](CCCNC(=N)N)NC(=O)[C@@H](CCCNC(=N)N)NC(=O)[C@@H](CCCNC(=N)N)NC(=O)[C@@H](CCCNC(=N)N)NC(=O)[C@@H](CCCNC(=N)N)NC(=O)CCCCCNCCNS(=O)(=O)c1cccc2cnccc12)C(N)=O

The next lines start with the molecule.

Compound: N=C(N)NCCC[C@@H](NC(=O)[C@@H](CCCNC(=N)N)NC(=O)[C@@H](CCCNC(=N)N)NC(=O)[C@@H](CCCNC(=N)N)NC(=O)[C@@H](CCCNC(=N)N)NC(=O)[C@@H](CCCNC(=N)N)NC(=O)CCCCCNC(=O)[C@@H](CCCCN)NC(=O)CCNC(=O)CNCC(=O)NCCNS(=O)(=O)c1cccc2cnccc12)C(N)=O
Kd [1]: 24 nM | pIC50 [1]: 6.79 | IC50 [2]: 17.8 nM | Kd [2]: 0.7 nM

Compound: N=C(N)NCCC[C@@H](NC(=O)[C@@H](CCCNC(=N)N)NC(=O)[C@@H](CCCNC(=N)N)NC(=O)[C@@H](CCCNC(=N)N)NC(=O)[C@@H](CCCNC(=N)N)NC(=O)[C@@H](CCCNC(=N)N)NC(=O)CCCCCNC(=O)[C@@H](CCCCN)NC(=O)CCCCCCCN1CCCN(S(=O)(=O)c2cccc3cnccc23)CC1)C(N)=O
inhibition (Bos taurus): Active | inhibition [3]: Active | Kd [4]: 3.3 nM | pIC50 [4]: 5.01 | IC50 [5]: 10.2 nM | Kd [5]: 0.02 nM | Selectivity Index [6]: 165

Compound: N=C(N)NCCC[C@@H](NC(=O)[C@@H](CCCNC(=N)N)NC(=O)CCCCCNC(=O)[C@@H](CCCCN)NC(=O)CCCCCNC(=O)[C@H]1O[C@@H](n2cnc3c(N)ncnc32)[C@H](O)[C@@H]1O)C(N)=O
Kd [1]: 8.9 nM | pIC50 [1]: 7.22 | Kd [4]: 4.5 nM | pIC50 [4]: 4.87 | Selectivity Index [6]: 0.7

Compound: NCCNS(=O)(=O)c1cccc2cnccc12
Ki [7]: 800 nM | Ki [8]: 1900 nM

Compound: N=C(N)NCCC[C@@H](NC(=O)[C@@H](CCCNC(=N)N)NC(=O)[C@@H](CCCNC(=N)N)NC(=O)[C@@H](CCCNC(=N)N)NC(=O)[C@@H](CCCNC(=N)N)NC(=O)[C@@H](CCCNC(=N)N)NC(=O)CCCCCNC(=O)[C@@H](CCCCN)NC(=O)CCCCCNC(=O)c1ccc(-c2ccnc(N)n2)s1)C(N)=O ({X1-Ahx}-[dK][Ahx][dR][dR][dR][dR][dR][dR]-NH2)
Kd [4]: 0.056 nM | pIC50 [4]: 6.78 | Selectivity Index [6]: 10

Compound: N=C(N)NCCC[C@@H](NC(=O)[C@@H](CCCNC(=N)N)NC(=O)[C@@H](CCCNC(=N)N)NC(=O)[C@@H](CCCNC(=N)N)NC(=O)[C@@H](CCCNC(=N)N)NC(=O)[C@@H](CCCNC(=N)N)NC(=O)CNCC(=O)NCCNS(=O)(=O)c1cccc2cnccc12)C(N)=O
Kd [1]: 120 nM | pIC50 [1]: 6.1 | IC50 [2]: 151 nM | Kd [2]: 6.4 nM

Compound: NCCCC[C@@H](NC(=O)CCCCCNC(=O)c1ccc(-c2ccnc(N)n2)s1)C(=O)NCCCCCC(=O)N[C@H](CCCN=C(N)N)C(=O)N[C@H](CCCN=C(N)N)C(=O)N[C@H](CCCN=C(N)N)C(=O)N[C@H](CCCN=C(N)N)C(=O)N[C@H](CCCN=C(N)N)C(=O)N[C@H](CCCN=C(N)N)C(N)=O ({X1-Ahx}-[dK][Ahx][dR][dR][dR][dR][dR][dR]-NH2)
IC50 [5]: 2.75 nM | Kd [5]: 0.0056 nM

Compound: NCCCC[C@@H](NC(=O)CCCCCNC(=O)[C@H]1O[C@@H](n2cnc3c(N)ncnc32)[C@H](O)[C@@H]1O)C(=O)NCCCCCC(=O)N[C@H](CCCN=C(N)N)C(=O)N[C@H](CCCN=C(N)N)C(N)=O
IC50 [5]: 977 nM | Kd [5]: 6.4 nM | IC50 [2]: 162 nM | Kd [2]: 7 nM

Compound: O=S(=O)(NCCNC/C=C/c1ccc(Br)cc1)c1cccc2cnccc12
Kd [4]: 17 nM | pIC50 [4]: 4.3

Compound: N=C(N)NCCC[C@@H](NC(=O)[C@@H](CCCNC(=N)N)NC(=O)[C@@H](CCCNC(=N)N)NC(=O)[C@@H](CCCNC(=N)N)NC(=O)[C@@H](CCCNC(=N)N)NC(=O)[C@@H](CCCNC(=N)N)NC(=O)CCCCCNC(=O)[C@H]1O[C@@H](n2cnc3c(N)ncnc32)[C@H](O)[C@@H]1O)C(N)=O
Kd [4]: 0.25 nM | pIC50 [4]: 6.12

Compound: NCCCC[C@@H](NC(=O)CCCCCCCN1CCCN(S(=O)(=O)c2cccc3cnccc23)CC1)C(=O)NCCCCCC(=O)N[C@H](CCCN=C(N)N)C(=O)N[C@H](CCCN=C(N)N)C(N)=O
IC50 [9]: 4570 nM | Kd [9]: 1600 nM | IC50 [10]: 3310 nM | Kd [10]: 860 nM | IC50 [11]: 1860 nM | Kd [11]: 630 nM | IC50 [12]: 9120 nM | Kd [12]: 7100 nM | IC50 [5]: 6760 nM | Kd [5]: 45 nM | IC50 [13]: 631 nM | Kd [13]: 27 nM

Compound: O=S(=O)(c1cccc2cnccc12)N1CCCNCC1 [FASUDIL]
Kd [4]: 420 nM | pIC50 [4]: 4.26

Compound: N=C(N)NCCC[C@@H](NC(=O)[C@@H](CCCNC(=N)N)NC(=O)[C@@H](CCCNC(=N)N)NC(=O)[C@@H](CCCNC(=N)N)NC(=O)[C@@H](CCCNC(=N)N)NC(=O)[C@@H](CCCNC(=N)N)NC(=O)CCCCCNC(=O)[C@@H](CCCCN)NC(=O)CCCCCNC(=O)[C@H]1O[C@@H](n2cnc3c(N)ncnc32)[C@H](O)[C@@H]1O)C(N)=O ({Adenosine(5'-uronoyl)-Ahx}-[dK][Ahx][dR][dR][dR][dR][dR][dR]-NH2)
Kd [4]: 0.26 nM | pIC50 [4]: 6.12 | IC50 [5]: 10.5 nM | Kd [5]: 0.021 nM | Selectivity Index [6]: 12
